Target: cDNA-expressed human hepatic CYP3A4 (Homo sapiens (Human), UniProt P08684)
Assay: Measurement of CYP (IC50 of P450 CYP3A4), BFC substrate
Assay type: in vitro ADME
Settings: 20 minutes
Procedure: The compounds of the present invention had lower P450 CYP3A4 inhibitory activity (higher IC50). Lower CYP3A4 inhibitory activity means that the compounds of the present invention cause fewer side-effects from the pharmacological point of view.
This assay was performed in a 200 l volume in 96-well microtiter plates using cDNA-expressed human hepatic CYP3A4 (supersome, BD Gentest™ #456202). As a substrate for CYP3A4, 7-benzyloxy-4-trifluoromethyl-coumarin (BFC) was used. The compounds of Examples 1 to 5 and the substrate BFC were dissolved in 100% acetonitrile. The final volume of acetonitrile of the incubation mixture was less than 1% (volume/volume). A potassium phosphate buffer (pH 7.4, final concentration 0.1M), MgCl2 (final concentration 8.3 mM), EDTA (final concentration 1.67 mM), an inventive compound stock solution, CYP3A4 supersome, and NADPH (final concentration 0.25 mM) were added to each well. The reaction was initiated by adding the substrate (BFC, final concentration 30 µM) at 37. The incubation was performed for 20 minutes and then the reaction was terminated by the addition of 75 μl of acetonitrile: 0.5 M tris-base=4:1 (volume/volume).
Then, a fluorescent signal was measured using a fluorometer. A BFC metabolite, 7-hydroxy-4-trifluoromethyl-coumarin, was measured using an excitation wavelength of 409 nm and an emission wavelength of 530 nm.

Sequence of cDNA-expressed human hepatic CYP3A4 (P08684 whole entry): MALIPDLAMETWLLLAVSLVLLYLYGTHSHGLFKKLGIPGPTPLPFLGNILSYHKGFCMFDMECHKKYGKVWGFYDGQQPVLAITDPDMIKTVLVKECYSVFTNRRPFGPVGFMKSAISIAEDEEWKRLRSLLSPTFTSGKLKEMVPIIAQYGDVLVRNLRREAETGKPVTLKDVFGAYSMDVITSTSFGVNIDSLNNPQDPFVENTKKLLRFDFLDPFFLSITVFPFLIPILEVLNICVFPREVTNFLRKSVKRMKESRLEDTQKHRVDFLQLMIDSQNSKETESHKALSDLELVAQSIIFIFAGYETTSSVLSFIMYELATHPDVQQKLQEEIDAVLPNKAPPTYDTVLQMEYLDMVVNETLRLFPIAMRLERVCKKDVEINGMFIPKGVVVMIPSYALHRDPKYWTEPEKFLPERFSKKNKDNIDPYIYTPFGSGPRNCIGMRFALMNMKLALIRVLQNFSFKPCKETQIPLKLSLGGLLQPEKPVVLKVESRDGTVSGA

Row | IC50 [µM] | SMILES
1 | 1.1 | C=CCN1CC(=O)N2[C@@H](Cc3ccc(O)cc3)C(=O)N(Cc3cccc4c(C(=O)NCCCN5CCOCC5)cn(C)c34)C[C@@H]2N1C(=O)NCc1ccccc1 [Compound F-29]
2 | 2.54 | C=CCN1CC(=O)N2[C@@H](Cc3ccc(O)cc3)C(=O)N(Cc3cccc4c(C(=O)NCCCN5CCN(C)CC5)cn(C)c34)C[C@@H]2N1C(=O)NCc1ccccc1 [Compound F-30]
3 | 11.5 | C=CCN1CC(=O)N2[C@@H](Cc3ccc(O)cc3)C(=O)N(Cc3cccc4c(C(=O)NCCN5CCN(C)CC5)cn(C)c34)C[C@@H]2N1C(=O)NCc1ccccc1 [Compound F-27]
4 | 3.46 | C=CCN1CC(=O)N2[C@@H](Cc3ccc(O)cc3)C(=O)N(Cc3cccc4c(C(=O)NCCCC(=O)OC)cn(C)c34)C[C@@H]2N1C(=O)NCc1ccccc1 [Compound F-23]
5 | 10.9 | C=CCN1CC(=O)N2[C@@H](Cc3ccc(O)cc3)C(=O)N(Cc3cccc4c(C(=O)N[C@H](C)C(=O)OC)cn(C)c34)C[C@@H]2N1C(=O)NCc1ccccc1 [Compound F-21]
6 | 17.9 | C=CCN1CC(=O)N2[C@@H](Cc3ccc(O)cc3)C(=O)N(Cc3cccc4c(C(=O)NCCCN(C)C)cn(C)c34)C[C@@H]2N1C(=O)NCc1ccccc1 [Compound F-18]
7 | 2.33 | C=CCN1CC(=O)N2[C@@H](Cc3ccc(O)cc3)C(=O)N(Cc3cccc4c(C(=O)N(C)NC)cn(C)c34)C[C@@H]2N1C(=O)NCc1ccccc1 [Compound F-53]
8 | 8.5 | C=CCN1CC(=O)N2[C@@H](Cc3ccc(O)cc3)C(=O)N(Cc3cccc4c(C(=O)NCCN5CCOCC5)cn(C)c34)C[C@@H]2N1C(=O)NCc1ccccc1 [Compound F-25]
9 | 16.4 | C=CCN1CC(=O)N2[C@@H](Cc3ccc(O)cc3)C(=O)N(Cc3cccc4c(C(=O)NCCOCCO)cn(C)c34)C[C@@H]2N1C(=O)NCc1ccccc1 [Compound F-7]
10 | 7.87 | C=CCN1CC(=O)N2[C@@H](Cc3ccc(O)cc3)C(=O)N(Cc3cccc4c(C(=O)NCCN(C)C)cn(C)c34)C[C@@H]2N1C(=O)NCc1ccccc1 [Compound F-13]

More lines, now with the values behind:

Row | SMILES | IC50 [µM]
11 | C=CCN1CC(=O)N2[C@@H](Cc3ccc(O)cc3)C(=O)N(Cc3cccc4c(C(=O)N5CCN(S(=O)(=O)CC)CC5)cn(C)c34)C[C@@H]2N1C(=O)NCc1ccccc1 [Compound E-16] | 2.82
12 | C=CCN1CC(=O)N2[C@@H](Cc3ccc(O)cc3)C(=O)N(Cc3cccc4c(C(=O)N5CCN(CCCO)CC5)cn(C)c34)C[C@@H]2N1C(=O)NCc1ccccc1 [Compound E-11] | 11.3
13 | C=CCN1CC(=O)N2[C@@H](Cc3ccc(O)cc3)C(=O)N(Cc3cccc4c(-c5cccc(C(=O)Nc6ccc(N7CCN(c8ccc(OC)cc8)CC7)cc6)c5)cn(C)c34)C[C@@H]2N1C(=O)NCc1ccccc1 [Compound D-25] | > 25
14 | C=CCN1CC(=O)N2[C@@H](Cc3ccc(O)cc3)C(=O)N(Cc3cccc4c(-c5cccc(C(=O)Nc6ccccc6)c5)cn(C)c34)C[C@@H]2N1C(=O)NCc1ccccc1 [Compound D-14] | 2.13
15 | C=CCN1CC(=O)N2[C@@H](Cc3ccc(O)cc3)C(=O)N(Cc3cccc4c(C(=O)N5CCC(N(C)C)CC5)cn(C)c34)C[C@@H]2N1C(=O)NCc1ccccc1 [Compound E-61] | 2.23
16 | C=CCN1CC(=O)N2[C@@H](Cc3ccc(O)cc3)C(=O)N(Cc3cccc4c(-c5ccc(NC(=O)NCC(C)(C)C)nc5)cn(C)c34)C[C@@H]2N1C(=O)NCc1ccccc1 [Compound D-96] | 2.19
17 | C=CCN1CC(=O)N2[C@@H](Cc3ccc(O)cc3)C(=O)N(Cc3cccc4c(C(=O)N5CCN(CCO)CC5)cn(C)c34)C[C@@H]2N1C(=O)NCc1ccccc1 [Compound E-9] | 6.82
18 | C=CCN1CC(=O)N2[C@@H](Cc3ccc(O)cc3)C(=O)N(Cc3cccc4c(-c5ccc(C(=O)Nc6ccc(OCCCC)cc6)cc5)cn(C)c34)C[C@@H]2N1C(=O)NCc1ccccc1 [Compound D-23] | > 25
19 | C=CCN1CC(=O)N2[C@@H](Cc3ccc(O)cc3)C(=O)N(Cc3cccc4c(C(=O)N5CC(N6CCOCC6)C5)cn(C)c34)C[C@@H]2N1C(=O)NCc1ccccc1 [Compound E-72] | 5.99

— patent US8940739B2, “Compound of a reverse-turn mimetic and a production method and use therefor” (JW Pharmaceutical Corporation, priority 2010, dated 2015)
